For assay [1], the system named is db/db mice. Briefly: Oral glucose tolerance test (OGTT). Conditions: OGTT in db/db mice, compound i.p. 15 min before oral glucose 1 g/kg, ED50 based on curve fits of AUC0-240 min. The class given is in vivo. Here is the method: Oral Glucose Tolerance Test (OGTT)
The anti diabetic effect of the present compounds was tested in an oral glucose tolerance test (OGTT). In short, animals were fasted over night, and blood samples were taken from the tip of the tail and the blood glucose measured. The whole blood glucose (mM) concentration was analysed by the immobilised glucose oxidase method using a drop of blood (<5 μl; Elite Autoanalyser, Bayer, Denmark) following the manufacturer's manual. The animals were kept fasted throughout the test. Immediately after the initial blood sample (fasting blood glucose level) test compound or vehicle was administered i.p. Fifteen minutes later an oral dose of glucose ((1 g/kg) Sigma, St. Louis, Mo., U.S.A.)), dissolved in phosphate buffer (pH=7.40) was given, and the animals were returned to their home cages (time=0). […] To analyse the effects of the test compounds on oral glucose tolerance the absolute difference in BG from baseline (fasting BG) was calculated for each time point. The area under the curve (AUC) (FIG. 1-8) for the whole experiment (AUC0-120 min) or (AUC0-240 min) was determined using the trapezoid method. Before starting the experimental series an OGTT was used to stratify animals into groups of 9-10 animals displaying similar glucose tolerances in all groups. Animals displaying excessive glucose excursion 30 min after glucose loading (BG>33 mmol/l) were excluded from the study.

In assay [2] the test system is diabetic db/db mice. Conditions: given systemically; cited from earlier work.
[3] abbreviates: Table 2, another set of experiments.

What is called ED50 is the dose that gives a 50% effect, or the effect in half of the subjects. High values mean weaker potency, low ones greater potency. As for “Compound 6: Stabilized derivative of Compound 1 (SEQ ID NO: 6), formed by incubation in NH4HCO3 pH 7.9 at 40° C. (HGEGTFTSDLSKQMEEEAVRLFIEWLKDGGPSSGAPPSKKKKKK)”, the ED50 in assay [1] (Table 1) is 0.013 nmol/kg.

In the case of “Compound 14: Stabilized derivative of Compound 1 (SEQ ID NO: 14), formed by incubation in NH4HCO3 pH 7.9 at 40° C. (HGEGTFTSDLSKQMEEEAVRLFIEWLKDGGPSSGAPPSKKKKKK)”, the median effective dose (ED50) in assay [1] (Table 1) was determined as 0.55 nmol/kg.

For “des Pro^36 Exendin-4 (1-39)-K6 [Compound 1]”, the figures for the 50% effective dose (ED50) in assay [1] (Table 1) and in assay [1] (setting [3]) were 0.049 nmol/kg and 0.073 nmol/kg, respectively.

Take “Compound 5: Stabilized derivative of Compound 1 (SEQ ID NO: 5), formed by incubation in NH4HCO3 pH 7.9 at 40° C. (HGEGTFTSDLSKQMEEEAVRLFIEWLKDGGPSSGAPPSKKKKKK)”: the ED50 in assay [1] (setting [3]) worked out at 0.043 nmol/kg.

“Compound 2: Stabilized derivative of Compound 1 (SEQ ID NO: 2), obtained by exposing Compound 1 to H2O2 (HGEGTFTSDLSKQMEEEAVRLFIEWLKDGGPSSGAPPSKKKKKK)” displayed a median effective dose (ED50) in assay [1] (setting [3]) of 0.011 nmol/kg.

In the case of Exendin-4, the “lowering of blood glucose levels” value in assay [2] is recorded as 40%.
